Target: T1, GABARAPL2 (Homo sapiens, UniProt P60520)
T1 construct: GST (N, cleaved yes); made in house; host or cells: E. coli BL21 (DE3)
Assay: Surface plasmon resonance (SPR) binding of GABARAPL2 to captured NDP52 I133W LIR peptide, steady state
Settings: full-length GABARAPL2 (C-terminal Phe117 present) injected over N-terminal LC-biotin peptide on streptavidin chip, BIAcore S200, 10 mM HEPES, 150 mM NaCl, 3.4 mM EDTA, 0.05% Tween pH 7.4, threefold, ten-step dilution series, injected 160 s, 800 s dissociation, steady-state fit, report point 145 s after injection
Description: GABARAPL2 was expressed and purified as described previously (Muhlinen et al., 2012[▸]). Briefly, Escherichia coli strain BL21 (DE3) cells were transformed with a pETM-30 plasmid harbouring the GABARAPL2 gene (Table 1 ▸). The cells were grown in 1 l Luria Broth (LB) medium supplemented with 100 mg l^−1 kanamycin at 37°C with agitation. Gene expression was induced when the cell density (OD600) reached approximately 0.6 by the addition of […] isopropyl β-D-1-thiogalactopyranoside (IPTG) for 3 h. Cell pellets were obtained by centrifugation at 5000g for 10 min and were lysed by sonication in lysis buffer (50 mM Tris pH 8.0, 150 mM NaCl, 1 mM EDTA) at 4°C. The lysate was clarified by centrifugation at 45 000g for 45 min and was filtered through a […] filter and immobilized on a column containing 1 ml Gluthathione Sepharose 4B resin (GE Life Sciences). GABARAPL2 was cleaved from the GST fusion protein on-column with 200 µg TEV protease and 0.5 mM TCEP overnight at 4°C. […]
Surface plasmon resonance (SPR) binding assays were performed using a BIAcore S200 in SPR buffer consisting of 10 mM HEPES, 150 mM NaCl, 3.4 mM EDTA, 0.05% Tween pH 7.4. […] The sensorgrams were analysed at steady state using a report point 145 s after injection, averaging the response over 5 s. […]

T1 sequence (P60520 with tags, fused parts or gaps): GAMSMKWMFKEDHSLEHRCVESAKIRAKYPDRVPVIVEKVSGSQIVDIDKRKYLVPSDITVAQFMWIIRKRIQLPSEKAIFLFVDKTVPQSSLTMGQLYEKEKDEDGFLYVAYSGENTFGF

SMILES: CC(C)C[C@H](NC(=O)[C@H](Cc1c[nH]c2ccccc12)NC(=O)[C@H](CC(=O)O)NC(=O)[C@H](CCC(=O)O)NC(=O)[C@H](CCC(=O)O)NC(=O)[C@H](CC(N)=O)NC(=O)[C@@H](N)CCC(=O)O)C(=O)N[C@H](C(=O)N[C@H](C(=O)N[C@H](C(=O)N[C@H](C(=O)N[C@@H](CCC(N)=O)C(=O)NCC(=O)N[C@@H](CCC(=O)O)C(=O)O)[C@@H](C)O)[C@@H](C)O)C(C)C)C(C)C [NDP52 I133W LIR peptide, ENEEDWLVVTTQGE]
- Kd (SPR Experiment 1): 4.85 µM
- Kd (SPR Experiment 2): 5.07 µM
